US10806702B2, “Bis-polymer lipid-peptide conjugates and nanoparticles thereof” (THE REGENTS OF THE UNIVERSITY OF CALIFORNIA, priority 2012, dated 2020)

Assays:
[1] = Drug loading of micelles (thin film hydration, HPLC); type: physicochemical; conditions: drug encapsulated in dC18-1coi(P2K)-P750 micelles
Description: DOX, paclitaxel and rapamycin loaded micelles were prepared using identical procedures by thin film hydration method. dC18-1coi(P2K)-P750 and the different drugs were dissolved in methanol in a glass vial and the solvent was evaporated in vacuum oven for 3 hours. The dried film containing the conjugate and drug was rehydrated with 25 mM phosphate buffer, pH 7.4, and the solution was stirred for 16 hours to allow the assembly into drug loaded 3-helix micelles. Free drug was removed by centrifugation followed by spin ultrafiltration (Amicon centrifugal filter units, MW cutoff: 3000 Da). The concentrate obtained was washed with water and lyophilized to obtain drug loaded micelles. The drug loaded micelles were dissolved in methanol and loading was determined by reverse phase HPLC monitoring the absorbance of drugs at 280 nm. For all characterization experiments of drug loaded micelles, lyophilized powder of micellar-drugs was dissolved in 25 mM phosphate buffer, pH 7.4, and the solution was heated in water bath at 60° C. for an hour to break potential aggregates to obtain a clear solution.
The solvent was evaporated in vacuum oven for 3 hours. […] The salts and free drug were removed by centrifugation followed by spin ultrafiltration (Amicon centrifugal filter units, MW cutoff: 3000 Da). […]
Drug loading content was determined by HPLC. […]

[2] = CED, 20 μl, DOX 0.2 mg/ml, a week after infusion
NDL tumors [3] = assay: Intravenous DOX-loaded micelles: organ fluorescence in NDL tumor mice; type: in vivo, FVB mice; conditions: 24 and 72 h
NDL tumors [4] = conditions: stated as known; cited from earlier work

Row | SMILES | Loading (wt %) [1] | brain tissue toxicity (H&E staining) [2] | fluorescence in different organs after free DOX injections (NDL tumors [3]) | clearance time from blood circulation (NDL tumors [4])
1 | CC(=O)O[C@H]1C(=O)[C@@]2(C)[C@H]([C@H](OC(=O)c3ccccc3)[C@]3(O)C[C@H](OC(=O)[C@H](O)[C@@H](NC(=O)c4ccccc4)c4ccccc4)C(C)=C1C3(C)C)[C@]1(OC(C)=O)CO[C@@H]1C[C@@H]2O [Paclitaxel, paclitaxel] | 1.9 ± 0.4 wt % | – | – | –
2 | COc1cccc2c1C(=O)c1c(O)c3c(c(O)c1C2=O)C[C@@](O)(C(=O)CO)C[C@@H]3O[C@H]1C[C@H](N)[C@H](O)[C@H](C)O1 [Doxorubicin, doxorubicin] | 7.6 ± 0.4 wt % | significant tissue damage | cannot be detected | tens of minutes
